Converted amounts (≈) assume the structure as drawn.

For one experiment, the system named is P. aeruginosa. The experiment can be described thus: Biofilm growth assay (spreading biofilm on semi-solid agar). Conditions: Pseudomonas aeruginosa; Table 3; concentration that reduces the area of the spreading biofilm by >= 85%; read-out: P. aeruginosa. In kind it is cell-based. The source says:
(§1) "Biofilm Growth Assay" refers to an assay performed on semi-solid agar surface where the bacteria collectively move out from an inoculation point. To those skilled in the art, the act of bacteria collectively moving out from an inoculation point on a semi-solid surface may be referred to as swarming or a spreading biofilm. (Anderson, et al Microbiology, 2003, 149, 37-46; Daniels, et al. FEMS Microbiology Reviews, 2004, 28, 261-289). The procedure to perform this assay is described in detail in the Examples. This type of surface motility by bacteria has been reported in the literature by those skilled in the art.
(§2) The biofilm growth assay was carried out to measure swarming or biofilm spreading on semi-solid agar media in round plates (for example, 100 × 15 mm), also referred to as Petri dishes. For E. coli, the plates contained LB medium with 0.6% agar and 0.5% glucose. P. aeruginosa plates were made with M8 agar supplemented with 0.2% glucose, 100 µM CaCl2, 1 mM MgSO4, and 0.5% Casamino acids. The agar plates of this assay consisted of 0.4% to 0.7% agar (Bacto or Noble agar), although other media may also be used as described in the literature and known to those skilled in the art. Test compounds at the desired concentration were added to the cooled, autoclaved media. Portions of the media were then poured into the plates (20 mL/plate), and the plates allowed to dry at room temperature for approximately 3 to 4 hours. Alternatively, however, plates may be dried in a laminar flow hood for approximately fifteen to twenty minutes. Overnight cultures were grown in a 37°C shaker in LB (E. coli) or TSB (P. aeruginosa). Plates were inoculated by placing 5 µL of the appropriate overnight culture in the centers of the plates. The plates then were incubated overnight at 37°C. The area of the zone of spreading bacteria was then measured and replicates are averaged. Percent inhibition was calculated as 100 × (area without compound - area with compound)/(area without compound). An active compound was considered that which reduces the area of the spreading biofilm compared to negative controls by greater than or equal to 85%. The values shown in Table 1 are the concentrations of compounds (µg/ml) tested in the biofilm growth assay that reduce the area of the spreading biofilm compared to negative controls by greater than or equal to 85% unless noted differently in Table 1. A > ("greater than" symbol) as used in Table 1 is well understood to those skilled in the art as an indication that the listed concentration was not effective at this concentration.
(§3) All of the compounds shown in Tables 2, 3, 4, and 5, below, were prepared semi-synthetically from oleanolic acid, except for Compounds 2 and 3. Compound 2 was prepared from ursolic acid. Compound 3 was prepared from hederagenin, but could also be prepared from an oleanolic acid analog with a hydroxyl at C23 or C24. These compounds were tested in the spreading biofilm assay according to the methods detailed in Example I, above. The values shown in Tables 2, 3, 4, and 5 are the concentrations of compounds tested in the biofilm growth assay that reduce the area of the spreading biofilm compared to negative controls by greater than or equal to 85%. Table 2. Compound 1 and its Analogs and their inhibitory concentrations in the biofilm growth assay as detailed in Example I, above

The subject of a further experiment is E. coli. Described as above. Type of experiment: cell-based. To be noted: Escherichia coli; Table 3; concentration that reduces the area of the spreading biofilm by >= 85%; read-out: E. coli.
Excerpt: as §1, §2, §3

Consider `CCC1=C2[C@@H]3CC(C)(C)CC[C@]3(C(=O)O)CC[C@@]2(C)[C@]2(C)CC[C@H]3C(C)(C)c4n[nH]c(N)c4C[C@]3(C)C2C1` (stereo partly drawn) [Compound 14, (4aS,6aS,6bR,8aR,13aR,15bS)-12-Amino-15-ethyl-2,2,6a,6b,9,9,13a-heptamethyl-2,3,4,4a,5,6,6a,6b,7,8,8a,9,11,13,13a,13b,14,15b-octadecahydro-1H-chryseno[1,2-f]indazole-4a-carboxylic acid], for which the IC85 is 0.5 µg/mL (≈ 0.958 µM) in the experiment on P. aeruginosa and 2 µg/mL (≈ 3.83 µM) in the experiment on E. coli.
The corresponding values for `CC1(C)CC[C@]2(C(=O)O)CC[C@]3(C)C(=C(c4cccc(N)c4)CC4[C@@]5(C)Cc6c(n[nH]c6N)C(C)(C)[C@@H]5CC[C@]43C)[C@@H]2C1` (stereo partly drawn) [Compound 15, (4aS,6aS,6bR,8aR,13aR,15bS)-12-Amino-15-(3-aminophenyl)-2,2,6a,6b,9,9,13a-heptamethyl-2,3,4,4a,5,6,6a,6b,7,8,8a,9,11,13,13a,13b,14,15b-octadecahydro-1H-chryseno[1,2-f]indazole-4a-carboxylic acid] are 0.25 µg/mL (≈ 0.427 µM) and 1 µg/mL (≈ 1.71 µM).
As to `CC1(C)CC[C@]2(C(=O)O)CC[C@]3(C)C(=C(c4cccc(O)c4)CC4[C@@]5(C)Cc6c(n[nH]c6N)C(C)(C)C5CC[C@]43C)C2C1` (stereo partly drawn) [Compound 16, (4aS,6aS,6bR,13aR)-12-Amino-15-(3-hydroxyphenyl)-2,2,6a,6b,9,9,13a-heptamethyl-2,3,4,4a,5,6,6a,6b,7,8,8a,9,11,13,13a,13b,14,15b-octadecahydro-1H-chryseno[1,2-f]indazole-4a-carboxylic acid], the IC85 in the experiment on P. aeruginosa is 1 µg/mL (≈ 1.71 µM); in the experiment with E. coli, 2 µg/mL (≈ 3.41 µM).
Consider `CC1(C)CC[C@]2(C(=O)O)CC[C@]3(C)C(=C(c4cccc(F)c4)CC4[C@@]5(C)Cc6c(n[nH]c6N)C(C)(C)[C@@H]5CC[C@]43C)[C@@H]2C1` (stereo partly drawn) [Compound 17, (4aS,6aS,6bR,8aR,13aR,15bS)-12-Amino-15-(3-fluorophenyl)-2,2,6a,6b,9,9,13a-heptamethyl-2,3,4,4a,5,6,6a,6b,7,8,8a,9,11,13,13a,13b,14,15b-octadecahydro-1H-chryseno[1,2-f]indazole-4a-carboxylic acid], for which the IC85 is 0.5 µg/mL (≈ 0.851 µM) with P. aeruginosa and > 2 µg/mL with E. coli.
In the case of `CC1(C)CC[C@]2(C(=O)O)CC[C@]3(C)C(=C(c4cccc(CN)c4)CC4[C@@]5(C)Cc6c(n[nH]c6N)C(C)(C)C5CC[C@]43C)C2C1` (stereo partly drawn) [Compound 18, (4aS,6aS,6bR,13aR)-12-Amino-15-(3-(aminomethyl)phenyl)-2,2,6a,6b,9,9,13a-heptamethyl-2,3,4,4a,5,6,6a,6b,7,8,8a,9,11,13,13a,13b,14,15b-octadecahydro-1H-chryseno[1,2-f]indazole-4a-carboxylic acid], the IC85 is 0.5 µg/mL (≈ 0.835 µM) in the experiment with P. aeruginosa and 1 µg/mL (≈ 1.67 µM) in the experiment on E. coli.
The corresponding values for `CC1(C)CC[C@]2(C(=O)O)CC[C@]3(C)C(=C(c4cccc(C(N)=O)c4)CC4[C@@]5(C)Cc6c(n[nH]c6N)C(C)(C)C5CC[C@]43C)C2C1` (stereo partly drawn) [Compound 19, (4aS,6aS,6bR,13aR)-12-Amino-15-(3-carbamoylphenyl)-2,2,6a,6b,9,9,13a-heptamethyl-2,3,4,4a,5,6,6a,6b,7,8,8a,9,11,13,13a,13b,14,15b-octadecahydro-1H-chryseno[1,2-f]indazole-4a-carboxylic acid] are 1 µg/mL (≈ 1.63 µM) and 1 µg/mL (≈ 1.63 µM).
For `Cc1ccc(C2=C3C4CC(C)(C)CC[C@]4(C(=O)O)CC[C@@]3(C)[C@]3(C)CCC4C(C)(C)c5n[nH]c(N)c5C[C@]4(C)C3C2)cc1N` (stereo partly drawn) [Compound 20, (4aS,6aS,6bR,13aR)-12-Amino-15-(3-amino-4-methylphenyl)-2,2,6a,6b,9,9,13a-heptamethyl-2,3,4,4a,5,6,6a,6b,7,8,8a,9,11,13,13a,13b,14,15b-octadecahydro-1H-chryseno[1,2-f]indazole-4a-carboxylic acid], in that order: 0.5 µg/mL (≈ 0.835 µM) and 2 µg/mL (≈ 3.34 µM).
With `CN(C)c1cccc(C2=C3C4CC(C)(C)CC[C@]4(C(=O)O)CC[C@@]3(C)[C@]3(C)CCC4C(C)(C)c5n[nH]c(N)c5C[C@]4(C)C3C2)c1` (stereo partly drawn) [Compound 21, (4aS,6aS,6bR,13aR)-12-Amino-15-(3-(dimethylamino)phenyl)-2,2,6a,6b,9,9,13a-heptamethyl-2,3,4,4a,5,6,6a,6b,7,8,8a,9,11,13,13a,13b,14,15b-octadecahydro-1H-chryseno[1,2-f]indazole-4a-carboxylic acid], the IC85 in the experiment with P. aeruginosa was 0.5 µg/mL (≈ 0.816 µM); in the experiment with E. coli, > 2 µg/mL.
The corresponding values for `CN(C)c1cc(C2=C3[C@@H]4CC(C)(C)CC[C@]4(C(=O)O)CC[C@@]3(C)[C@]3(C)CC[C@H]4C(C)(C)c5n[nH]c(N)c5C[C@]4(C)C3C2)ccn1` (stereo partly drawn) [Compound 22, (4aS,6aS,6bR,8aR,13aR,15bS)-12-Amino-15-(2-(dimethylamino)pyridin-4-yl)-2,2,6a,6b,9,9,13a-heptamethyl-2,3,4,4a,5,6,6a,6b,7,8,8a,9,11,13,13a,13b,14,15b-octadecahydro-1H-chryseno[1,2-f]indazole-4a-carboxylic acid] are 1 µg/mL (≈ 1.63 µM) and > 2 µg/mL.
Take `CC1(C)CC[C@]2(C(=O)O)CC[C@]3(C)C(=C(c4ccccc4N)CC4[C@@]5(C)Cc6c(n[nH]c6N)C(C)(C)C5CC[C@]43C)C2C1` (stereo partly drawn) [Compound 23, (4aS,6aS,6bR,13aR)-12-Amino-15-(2-aminophenyl)-2,2,6a,6b,9,9,13a-heptamethyl-2,3,4,4a,5,6,6a,6b,7,8,8a,9,11,13,13a,13b,14,15b-octadecahydro-1H-chryseno[1,2-f]indazole-4a-carboxylic acid]: the IC85 in the experiment with P. aeruginosa was 1 µg/mL (≈ 1.71 µM); in the experiment on E. coli, 2 µg/mL (≈ 3.42 µM).
`CC1(C)CC[C@]2(C(=O)O)CC[C@]3(C)C(=C(Cl)CC4[C@@]5(C)Cc6c(n[nH]c6N)C(C)(C)C5CC[C@]43C)C2C1` (stereo partly drawn) [Compound 24, (4aS,6aS,6bR,13aR)-12-Amino-15-chloro-2,2,6a,6b,9,9,13a-heptamethyl-2,3,4,4a,5,6,6a,6b,7,8,8a,9,11,13,13a,13b,14,15b-octadecahydro-1H-chryseno[1,2-f]indazole-4a-carboxylic acid]: the IC85 in the experiment with P. aeruginosa was determined as 0.5 µg/mL (≈ 0.947 µM); with E. coli, 1 µg/mL (≈ 1.89 µM).
As for `CC1(C)CC[C@]2(C(=O)O)CC[C@]3(C)C(=C(Br)CC4[C@@]5(C)Cc6c(n[nH]c6N)C(C)(C)[C@@H]5CC[C@]43C)[C@@H]2C1` (stereo partly drawn) [Compound 25, (4aS,6aS,6bR,8aR,13aR,15bR)-12-Amino-15-bromo-2,2,6a,6b,9,9,13a-heptamethyl-2,3,4,4a,5,6,6a,6b,7,8,8a,9,11,13,13a,13b,14,15b-octadecahydro-1H-chryseno[1,2-f]indazole-4a-carboxylic acid], the IC85 with P. aeruginosa was 0.5 µg/mL (≈ 0.873 µM); in the experiment on E. coli, > 2 µg/mL.
On to `CC1(C)CC[C@]2(C(=O)O)CC[C@]3(C)C(=C(c4ccoc4)CC4[C@@]5(C)Cc6c(n[nH]c6N)C(C)(C)[C@@H]5CC[C@]43C)[C@@H]2C1` (stereo partly drawn) [Compound 26, (4aS,6aS,6bR,8aR,13aR,15bS)-12-Amino-15-(furan-3-yl)-2,2,6a,6b,9,9,13a-heptamethyl-2,3,4,4a,5,6,6a,6b,7,8,8a,9,11,13,13a,13b,14,15b-octadecahydro-1H-chryseno[1,2-f]indazole-4a-carboxylic acid], for which the IC85 with P. aeruginosa is 0.25 µg/mL (≈ 0.447 µM); in the experiment on E. coli, 1 µg/mL (≈ 1.79 µM).

The values above are taken from patent EP2712863B1, “Novel inhibitors of bacterial biofilms and related methods” (Sequoia Sciences, Inc., priority 2012, dated 2014).
